Reference: US12564570B2, “Use of leoligin in the prevention of tissue damage” (UNIVERSITÄT LINZ, priority 2020, dated 2026)

What was measured:
[1] = system: myocardial infarction in mice; settings: after induction of MI in mice, 10 injections per heart directly into the infarction zone; cited from earlier work
[2] = Metabolic stability assay in human liver S9 fraction; assay type: in vitro ADME; settings: for elimination half live in liver S9: human liver S9 0.5 mg/ml, NADPH and UDPGA co-factors, 3 μM compound, 37° C., HPLC, first order kinetic
Description: To gain insights into the enzymatic stability of a drug, the metabolic stability assay serves as an effective tool and also helps to separate applicable routes for drug uptake from less applicable ones e.g. due to fast hepatic clearance. When substances are applied orally, the liver clearance (first-pass effect) has the most influence on drug clearance and further on the amount of active drug reaching the site of action. Thus, in order to test hepatic clearance, 5-ML was exposed to subcellular fractions of liver and compound concentrations were assessed in a time-dependent manner.
The concept of in vitro metabolic stability testing is based on and predicts well liver metabolic clearance in vivo. Therefore, the subcellular fraction which accounts for most of the enzymatic activity of the organ is used, which contains intra and extra cellular enzymes of the liver. The elimination half live of 5-ML was calculated by the assessment of the elimination constant.
(§1) For the organ specific enzymatic degradation of a compound a reaction mix (1 ml) was made, and aliquots (50 μl) were taken at the timepoints indicated in the Figures to calculate the elimination constant by measuring the compound concentration over time using HPLC-based quantification.
(§2) The reaction mix contains: • Subcellular fraction of the specific organ (Liver S9, Lung microsomes, or Saliva), • Co-Factor Solution (NADPH and UDPGA). Co-factors are used in this assay to activate the enzymatic activity of the main metabolizing enzymes of the organ specific subcellular fractions. NADPH is needed for the Phase I oxidation where Cytochrome P450 […] accounts for the most and UDPGA is needed for the Phase II glucuronidation, • and the desired compound: 5-ML as active ingredient, Diclofenac as control, water as control; diluted in DMSO.
All compounds were tested in triplicates, except the solvent control (water instead of active compound 5-ML). […]

ATRA-signalling = settings: Danzl et al. 2019; cited from earlier work
[3] = system: myocardial infarction rat model; settings: direct injection into the peri-infarction zone; cited from earlier work
[4] = Metabolic stability assay in pooled human saliva; assay type: in vitro ADME
Method: as §1, §2
(§3) Preparation of the reaction mix (in Triplicates): • Take 980 μl organ specific subcellular fraction solution (0.5 mg/ml) of human liver S9 fraction in DPBS with Calcium and Magnesium, • Add 10 μl of substance stock solution dissolved in DMSO (c 0,003 M) from either 5-ML, Diclofenac or water as solvent control. […] Cells 2020, 9, 2048).
Materials & Methods are the same as in Example 4, except that pooled human saliva was used instead of S9 liver fraction. […]

[5] = Metabolic stability assay in pooled human lung microsomes; assay type: in vitro ADME; settings: pooled human lung microsomes with co-factors; also printed as 23.1 h
Method: as §1, §2, §3
Next, 5-ML was exposed to lung microsomes (drug delivery by inhalation).
Materials & Methods are the same as in Example 4, except that lung microsomes were used instead of S9 liver fraction.

[6] = literature value; cited from earlier work

Row | elimination half live in liver S9 [2] [min] | elimination constant of exponential first order kinetic ([2]; human liver S9, Ln(2)/k gives half live, time axis in minutes, in min-1) | elimination in saliva with co-factors ([4]; with co-factors (NADPH and UDPGA)) | elimination half-life in saliva without co-factor ([4]; without co-factor solution) [h] | elimination half live in lung microsomes [5] [min] | Compound | infarction area [1] | inhibition of ATRA-signalling (ATRA-signalling) | arteriogenesis in vivo [3] | estimated half live in human liver in literature [6] [h]
1 | 10.66 | 0,065 | no elimination | 115.5 | 1386 | C/C=C(/C)C(=O)OC[C@H]1[C@@H](Cc2ccc(OC)c(OC)c2)CO[C@@H]1c1cc(OC)c(OC)c(OC)c1 [5-ML] | reduces the infarction area | capable of inhibiting ATRA-signalling | induced arteriogenesis | 
2 | 173 |  |  |  |  | O=C(O)Cc1ccccc1Nc1c(Cl)cccc1Cl [diclofenac, reference compound] |  |  |  | 1 to 3
